Data: patent publication US20070116823A1, “HIGH-POTENCY SWEETENER FOR HYDRATION AND SWEETENED HYDRATION COMPOSITION” (THE COCA-COLA COMPANY, priority 2005, published 2007)

What was measured:
[1] = Rate of dissolution of rebaudioside A forms in H2O at 25° C.; type: physicochemical; conditions: in words
[2] = tested on: panel of experts in the sensory evaluation of foods and beverages; assay: Sensory evaluation of sweetness linger by expert panel; type: in vivo; conditions: for Sweetness linger / Sweetness linger rating: scale 0=no to 5=high sweetness linger; for Sweetness Linger rating as defined by the protocol: reference points of the scale, REBA control sample 500 ppm
Procedure: Sensory evaluation of the samples prepared in Example Set G was carried out under the following protocol, similar to that described hereinabove. In this test protocol, none of the samples were swallowed. All samples were expectorated and the mouth was rinsed with water after the tasting. Immediately upon sensing maximal sweetness, the sample was expectorated, the mouth was rinsed with water and the rate of sweetness decay (“Sweetness Linger”) was measured, where attention was focused on the sweetness 3-4 min after the water rinse. After sample tasting was complete, a salty oyster cracker was chewed followed by a water rinse, and at least 5 minutes followed before tasting the next sample. The sweetness linger was rated by a panel of experts in the sensory evaluation of foods and beverages using the following scale: 0=no sweetness linger, 1=very slight sweetness linger, 2=slight sweetness linger, 3=moderate sweetness linger, 4=moderately high sweetness linger, 5=high sweetness linger.
The “Sweetness Linger” rating for sucrose observed by this protocol is defined as 0. The Sweetness Linger of a 500 ppm of REBA control sample is defined as 5. Experimental samples were tasted by the same protocol, always allowing sufficient time between samples to ensure re-equilibration of the sensory system. Re-tasting of control samples during the course of the experiment was allowed and encouraged.
The comparison taste test was performed between two controls and addition of sweet taste improving additive on the onset and/or sweetness linger.
Sweet taste improving compositions were combined with a REBA solution to determine their effect on sweetness linger. Screening of the initial sample, or further dilutions, allowed identification of concentrations which were just above-threshold, herein defined as “near-threshold concentrations.” The near-threshold additive concentrations, a 6- to 100-fold higher higher additive concentration (depending on the off-taste intensity), and a mid-level additive concentration (halfway between the near-threshold and higher additive concentration) were evaluated to determine the effect on sweetness linger of a REBA solution.
Formulations of a 500 ppm REBA in a phosphoric acid solution (75%) at a pH of 2.5 with phosphoric acid or a pH of 3.1 with citric acid and potassium citrate were prepared prior to the addition of the additives at the three levels of concentration.
\Sensory evaluation using the protocol described in Example Set C then was used to evaluate the sweetness linger of the REBA solutions.

Molecule	Rate of dissolution in H2O at 25° C. [1]	Sweetness Linger rating as defined by the protocol [2]	other results
rebaudioside A [Form 3]	High	–	–
rebaudioside A	–	5	Sweetness linger ([2]; Example Set G: 400 ppm REBA in citric acid/potassium citrate composition equivalent to diet lemon-lime beverage, with or without additive): 5; Sweetness linger ([2]; Example Set H: REBA in carbon-treated water, phosphoric acid (75%) to pH 2.4-2.5, with or without additive): 5
rebaudioside A [Form 2]	Intermediate	–	–
rebaudioside A [Form 4]	High	–	–
rebaudioside A [Form 1]	Very low	–	–
OC[C@H]1O[C@@](CO)(O[C@H]2O[C@H](CO)[C@@H](O)[C@H](O)[C@H]2O)[C@@H](O)[C@@H]1O [sucrose]	–	0	Sweetness linger rating ([2]; Set G control: 8 g of sugar in 100 ml of citrate buffer): 0; Sweetness linger rating ([2]; Set H control: 10 g of sugar in 100 ml carbon treated water, phosphoric acid to pH 2.4-2.5): 0
